{"source": "patent US20150105252A1", "about": "“SUBSTITUTED PYRAZOLES AS HERBICIDES” (E I DU PONT DE NEMOURS AND COMPANY, priority 2013, published 2015)", "experiment_in_all_cases": "Test F preemergence", "conditions_in_all_cases": "Preemergence, scale 0 to 100", "key": {"dayflower, VA": {"test_system": "dayflower, VA", "type": "in vivo, Commelina virginica", "outline": "(§1)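 Plant response is scored by eye relative to controls on a 0 to 100 scale, where 100 means complete control. Preemergence applications were made to seeded silt loam; postemergence ones to seedlings 2 to 18 cm high. Greenhouse holding time was 14 to 21 days.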"}, "green foxtail": {"test_system": "green foxtail", "type": "in vivo, Setaria viridis", "description": "(§2) Seeds of plant species selected from corn (Zea mays), soybean (Glycine max), velvetleaf (Abutilon theophrasti), lambsquarters (Chenopodium album), wild poinsettia (Euphorbia heterophylla), pigweed, palmer (palmer pigweed, Amaranthus palmeri), common waterhemp (Amaranthus rudis), surinam grass (Brachiaria decumbens), large crabgrass (Digitaria sanguinalis), crabgrass, Brazil (Brazilian crabgrass, Digitaria horizontalis), fall panicum (Panicum dichotomiflorum), giant foxtail (Setaria faberii), green foxtail (Setaria viridis), goosegrass (Eleusine indica), johnsongrass (Sorghum halepense), common ragweed (Ambrosia elation), barnyardgrass (Echinochloa crus-galli), southern sandbur (Cenchrus echinatus), arrowleaf sida (Sida rhombifolia), Italian ryegrass (Lolium multiflorum), dayflower, VA (Virginia (VA) dayflower, Commelina virginica), field bindweed (Convolvulus arvensis), cocklebur (common cocklebur, Xanthium strumarium), morningglory (Ipomoea coccinea), nightshade (eastern black nightshade, Solanum ptycanthum), kochia (Kochia scoparia), yellow nutsedge (Cyperus esculentus), and hairy beggarticks (Bidens pilosa), were planted into a silt loam soil and treated preemergence with test chemicals formulated in a non-phytotoxic solvent mixture which included a surfactant.\n(§3) At the same time, plants from these crop and weed species and also horseweed (Canada horseweed, Conyza canadensis), smartweed (ladysthumb smartweed, Polygonum persicaria), waterhemp_RES1, (ALS & Triazine resistant common waterhemp, Amaranthus rudis), and waterhemp_RES2, (ALS & HPPD resistant common waterhemp, Amaranthus rudis) were treated with postemergence applications of test chemicals formulated in the same manner. Plants ranged in height from 2 to 18 cm for postemergence treatments (1- to 4-leaf stage). Treated plants and controls were maintained in a greenhouse for 14 to 21 days, after which time all species were compared to controls and visually evaluated. Plant response ratings, summarized in Table F, are based on a scale of 0 to 100 where 0 is no effect and 100 is complete control. A dash (-) response means no test result."}, "Italian ryegrass": {"test_system": "Italian ryegrass", "type": "in vivo, Lolium multiflorum", "outline": "as §1"}, "Surinam grass": {"test_system": "Surinam grass", "type": "in vivo, Brachiaria decumbens", "description": "as §2, §3"}, "velvetleaf": {"test_system": "velvetleaf", "type": "in vivo, Abutilon theophrasti", "outline": "as §1"}, "soybean": {"test_system": "soybean", "type": "in vivo, Glycine max", "outline": "as §1"}}}
{"smiles": "CCc1cc(C(=O)NCC(F)(F)F)nn1Cc1ccnc(Br)c1", "note": "[Compound 224]", "values": [{"measurement": "Plant response rating, Dayflower, VA", "setting": "dayflower, VA; 62 g ai/ha", "result": 0}, {"measurement": "Plant response rating, Dayflower, VA", "setting": "dayflower, VA; 125 g ai/ha", "result": 40}, {"measurement": "Plant response rating, Dayflower, VA", "setting": "dayflower, VA; 250 g ai/ha", "result": 85}, {"measurement": "Plant response rating, Green Foxtail", "setting": "green foxtail; 62 g ai/ha", "result": 35}, {"measurement": "Plant response rating, Green Foxtail", "setting": "green foxtail; 125 g ai/ha", "result": 70}, {"measurement": "Plant response rating, Green Foxtail", "setting": "green foxtail; 250 g ai/ha", "result": 95}, {"measurement": "Plant response rating, Italian Ryegrass", "setting": "Italian ryegrass; 62 g ai/ha", "result": 20}, {"measurement": "Plant response rating, Italian Ryegrass", "setting": "Italian ryegrass; 125 g ai/ha", "result": 0}, {"measurement": "Plant response rating, Italian Ryegrass", "setting": "Italian ryegrass; 250 g ai/ha", "result": 60}, {"measurement": "Plant response rating, Surinam Grass", "setting": "Surinam grass; 62 g ai/ha", "result": 70}, {"measurement": "Plant response rating, Surinam Grass", "setting": "Surinam grass; 125 g ai/ha", "result": 50}, {"measurement": "Plant response rating, Surinam Grass", "setting": "Surinam grass; 250 g ai/ha", "result": 65}, {"measurement": "Plant response rating, Velvetleaf", "setting": "velvetleaf; 62 g ai/ha", "result": 50}, {"measurement": "Plant response rating, Velvetleaf", "setting": "velvetleaf; 125 g ai/ha", "result": 80}, {"measurement": "Plant response rating, Velvetleaf", "setting": "velvetleaf; 250 g ai/ha", "result": 95}, {"measurement": "Plant response rating, Soybean", "setting": "soybean; 62 g ai/ha", "result": 25}, {"measurement": "Plant response rating, Soybean", "setting": "soybean; 125 g ai/ha", "result": 20}, {"measurement": "Plant response rating, Soybean", "setting": "soybean; 250 g ai/ha", "result": 50}]}
